From patent publication US20140377340A1, “HLA-DR BINDING PEPTIDES AND THEIR USES” (priority 2007, published 2014)

Tests used:
[1] = test system: peptide-specific T cells in PBMC; test: 10-day interferon-gamma ELIspot with PBMC of breast or ovarian cancer patients and healthy controls; type: cell-based, human; conditions: for Percent of patients with responses: fraction of breast or ovarian cancer patients with mean T cell values above cutoff (mean + 2 SD of healthy donors)
Excerpt: Each panel represents a unique peptide and each data point is derived from one individual. The grey box (i.e. cutoff) delineates the region that constitutes the mean and two standard deviations calculated from the normal healthy individuals. The percentages represent the fraction of patients that had mean T cell values above the cutoff. The peptides that are circled are those in which a higher fraction of the patients responded compared to the normal healthy controls. These peptides are considered to be the best vaccine candidates. However, it is clear that the rigidness of this approach could potentially result in many false negatives. […] Despite this, we identified 5 candidates to move forward. The fidelity of this approach is evident from a prior study which has already shown that a HER-2/neu peptide, p884-899, which encompasses the binding motif of p885, is an HLA-DR4 epitope.
Enzyme-linked immunosorbent spot assay. A 10-day ELlspot for detecting low-frequency T cells was used to determine reactivity to the tumor antigen peptides (Table 1) as described (Knutson K L et al. J Clin Onc 2006;24: 4254-61). […] PMA/Ionomycin and the CEF pool were used as positive non-tumor related controls as previously described (Knutson, 2006).
Using predictive algorithms discussed above, candidate HLA-DR1-binding epitopes were identified. […] An interferon-gamma ELIspot assay was used to assess immunity to the indiscriminate binding peptides in 48 patients with either breast or ovarian cancer and 18 healthy controls.
Using an ELlspot assay with a limit of detection of approximately […], patient-derived PBMC were screened for reactivity against all of the HLA-DR binding peptides.

[2] = test system: 15 different HLA-DR molecules; test: HLA-DR binding assays, panel of 15 different HLA-DR molecules (breadth of binding); conditions: number of the 15 HLA-DR molecules bound (binders: 1000 nM or better)
[3] = target: T1, purified HLA DRB1*0404 (Homo sapiens, UniProt P01903+P01911, A100R/A169T/F76Y/I96L/K127E/L162R/M171V/N62H/P40V/Q125Y/R42H/S133A/S149N/S66Y/V209L/W38E); test: HLA-DR radioligand binding inhibition assay, DRB1*0404; conditions: IC50 nM purified HLA DRB1 *0404, purified HLA DRB1*0404
T1 construct: purified from EBV transformed homozygous cell lines or single MHC allele transfected 721.221, C1R, or fibroblast lines; made in house
Procedure, shortened: (§1)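 The probe, 1-10 nM radiolabeled peptide, was incubated with 1 μM to 1 nM HLA-DR for 2 days in the presence of protease inhibitors.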

[4] = target: T2, purified HLA DRB3*0101 (Homo sapiens, UniProt P01903+P79483); test: HLA-DR radioligand binding inhibition assay, DRB3*0101; conditions: IC50 nM purified HLA DRB3 *0101, purified HLA DRB3*0101
T2 construct: purified from EBV transformed homozygous cell lines or single MHC allele transfected 721.221, C1R, or fibroblast lines; made in house
Experimental: (§2) Instead, wells of an opaque white 96-well Optiplate (Packard) are coated with 3 μg (100 μl@ 30 μg/ml) of HLA-specific antibody (Ab) that “capture” complexes of radiolabeled MHC and unlabeled peptide transferred from the molecular binding assay plate in 100 μl of 0.05% NP40/PBS. After a 3-hour incubation period, the supernatant is decanted and scintillation fluid (Microscint 20) added. Captured complexes are then measured on a microplate scintillation and luminescence counter (TopCount NXTTM; Packard).
(§3) HLA-DR purification. Fifteen distinct HLA-DR molecules were used in quantitative assays to measure the binding of peptides to solubilized HLA-DR molecules. […] Briefly, columns of inactivated Sepharose CL4B and Protein A Sepharose were used as pre-columns. HLA-DR molecules were captured by passage of lysates over LB3.1 monoclonal antibody (anti-HLA-DRA) columns. Antibody columns were washed with 10 mM Tris-HCL, pH8.0 with 1% (v/v) NP-40, followed by PBS containing 0.4% (w/v) n-octylglucoside. […] The pH was reduced to 8.0 and the eluates were concentrated by centrifugation in Centriprep 30 concentrators at 2000 rpm (Amicon, Beverly, Mass.).
(§4) Briefly, 1-10 nM of radiolabeled peptide was co-incubated for 2 days at either room temperature or 37° C. with 1 μM to 1 nM purified HLA-DR molecules in the presence of a cocktail of protease inhibitors. Assays were performed at various pH conditions, ranging from pH 4 to pH 7. […] After incubation, the percentage of HLA-DR-bound radioactivity is determined by capturing HLA-DR/peptide complexes on Optiplates (Packard Instruments, Meriden, Conn.) coated with the LB3.1 antibody and determining bound counts per minute using the TopCount microscintillation counter (Packard Instruments). […] Competitor peptides are tested in 2-4 complete, independent experiments, at concentrations ranging from […].

[5] = target: T3, purified HLA DRB1*1101 (Homo sapiens, UniProt P01903+P01911, A100R/A169T/A87E/I96F/K41T/L162R/M171V/P40S/Q125H/Q178H/Q39Y/Q99D/R42S/S66Y/T262R/V115G/W38E); test: HLA-DR radioligand binding inhibition assay, DRB1*1101; conditions: IC50 nM purified HLA DRB1 *1101, purified HLA DRB1*1101
T3 construct: purified from EBV transformed homozygous cell lines or single MHC allele transfected 721.221, C1R, or fibroblast lines; made in house
T3 sequence (P01903 26-254, other chains not shown): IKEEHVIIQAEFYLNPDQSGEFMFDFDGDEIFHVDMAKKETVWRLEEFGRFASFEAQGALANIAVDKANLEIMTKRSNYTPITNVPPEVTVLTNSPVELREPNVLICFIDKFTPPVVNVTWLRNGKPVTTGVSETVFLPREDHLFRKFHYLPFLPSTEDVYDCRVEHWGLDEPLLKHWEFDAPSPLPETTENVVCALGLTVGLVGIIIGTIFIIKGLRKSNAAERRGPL
Procedure, shortened: as §1

[6] = target: T4, purified HLA DRB1*0802 (Homo sapiens, UniProt P01903+P01911, A100R/A103L/A169T/F76Y/H45Y/I96F/K41T/L162R/M171V/P40S/Q125H/Q178H/Q39Y/Q99D/R218S/R42G/S66Y/V115G/W38E); test: HLA-DR radioligand binding inhibition assay, DRB1*0802; conditions: IC50 nM purified HLA DRB1 *0802, purified HLA DRB1*0802
T4 construct: purified from EBV transformed homozygous cell lines or single MHC allele transfected 721.221, C1R, or fibroblast lines; made in house
Experimental: as §2, §3, §4

[7] = target: T5, purified HLA DRB1*1201 (Homo sapiens, UniProt P01903+P01911, A100R/A169T/D57E/D86V/F55L/H45Y/K41T/L162R/M171V/P40S/Q125H/Q178H/Q39Y/Q99D/R42G/S66L/T262R/V114A/V67L/W38E/Y59H/Y61H/Y89S); test: HLA-DR radioligand binding inhibition assay, DRB1*1201
T5 construct: purified from EBV transformed homozygous cell lines or single MHC allele transfected 721.221, C1R, or fibroblast lines; made in house
Experimental: as §2, §3, §4

[8] = target: T6, purified HLA DRB1*0301 (Homo sapiens, UniProt P01903+P01911, A100K/A102G/A103R/A169T/F55Y/I96L/K41T/L162R/M171V/P40S/Q125H/Q178H/Q39Y/R42S/S66N/T106N/T262R/W38E/Y61H); test: HLA-DR radioligand binding inhibition assay, DRB1*0301; conditions: IC50 nM purified HLA DRB1 *0301, purified HLA DRB1*0301
T6 construct: purified from EBV transformed homozygous cell lines or single MHC allele transfected 721.221, C1R, or fibroblast lines; made in house
Experimental: as §2
HLA-DR purification. Fifteen distinct HLA-DR molecules were used in quantitative assays to measure the binding of peptides to solubilized HLA-DR molecules. […] Briefly, columns of inactivated Sepharose CL4B and Protein A Sepharose were used as pre-columns. HLA-DR molecules were captured by passage of lysates over LB3.1 monoclonal antibody (anti-HLA-DRA) columns. Antibody columns were washed with 10 mM Tris-HCL, pH8.0 with 1% (v/v) NP-40, followed by PBS containing 0.4% (w/v) n-octylglucoside.
Briefly, 1-10 nM of radiolabeled peptide was co-incubated for 2 days at either room temperature or 37° C. with 1 μM to 1 nM purified HLA-DR molecules in the presence of a cocktail of protease inhibitors. Assays were performed at various pH conditions, ranging from pH 4 to pH 7. […] After incubation, the percentage of HLA-DR-bound radioactivity is determined by capturing HLA-DR/peptide complexes on Optiplates (Packard Instruments, Meriden, Conn.) coated with the LB3.1 antibody and determining bound counts per minute using the TopCount microscintillation counter (Packard Instruments).

Structure (SMILES)	Percent of patients with responses [1] [%]	Total XRN [2]	patient response rate on exclusion of one healthy individual with a robust response ([1]; recalculated cutoff, FIG. 1) [%]	IC50 [3] [nM]	IC50 [4] [nM]	IC50 [5] [nM]	IC50 [6] [nM]	IC50 [7] [nM]	IC50 [8] [nM]
CC[C@H](C)[C@H](NC(=O)[C@@H](NC(=O)[C@H](CC(C)C)NC(=O)[C@H](CCCCN)NC(=O)[C@H](C)NC(=O)[C@@H](NC(=O)[C@@H](NC(=O)[C@@H]1CCCN1C(=O)[C@@H]1CCCN1C(=O)[C@H](CC(N)=O)NC(=O)[C@H](Cc1c[nH]c2ccccc12)NC(=O)[C@H](Cc1ccccc1)NC(=O)[C@@H](NC(=O)[C@H](CC(C)C)NC(=O)[C@@H](N)CC(C)C)[C@@H](C)O)[C@@H](C)O)[C@@H](C)O)[C@@H](C)O)C(=O)O [Peptide 9019.0105]	17	10							
CC[C@H](C)[C@H](N)C(=O)N[C@@H](CCCCN)C(=O)N[C@@H](Cc1c[nH]c2ccccc12)C(=O)N[C@@H](CCSC)C(=O)N[C@@H](C)C(=O)N[C@@H](CC(C)C)C(=O)N[C@@H](CCC(=O)O)C(=O)N[C@@H](CO)C(=O)N[C@H](C(=O)N[C@@H](CC(C)C)C(=O)N[C@@H](CCCNC(=N)N)C(=O)N[C@@H](CCCNC(=N)N)C(=O)N[C@@H](CCCNC(=N)N)C(=O)N[C@@H](Cc1ccccc1)C(=O)N[C@H](C(=O)O)[C@@H](C)O)[C@@H](C)CC [Peptide 9019.0003]	4	10	15						
CC[C@H](C)[C@H](NC(=O)[C@H](CO)NC(=O)[C@@H]1CCCN1C(=O)[C@H](CCCCN)NC(=O)[C@@H]1CCCN1C(=O)[C@H](CC(C)C)NC(=O)[C@H](CCC(=O)O)NC(=O)[C@H](C)NC(=O)[C@H](CO)NC(=O)[C@@H](NC(=O)[C@@H](NC(=O)[C@@H](NC(=O)[C@@H](N)[C@@H](C)O)[C@@H](C)CC)[C@@H](C)O)C(C)C)C(=O)N[C@@H](CO)C(=O)N[C@@H](CO)C(=O)O [Peptide 9019.0132]				7000	> 20000	> 20000	> 20000	> 20000	74
